Source: patent US20260209262A1, “MEMBRANE FILTRATION-ASSISTED SOLUTION PHASE OLIGONUCLEOTIDE SYNTHESIS” (EXACTMER LIMITED, priority 2022, published 2026)
In brackets after ≈: the same amount, converted by molar mass.

Assay: Solubility of protected phosphoramidites in acetonitrile (aliquots added until a clear solution)
Format: physicochemical
Details: for Solubility: 30° C.
Protocol: A range of 5′-O-Dmtr-nucleoside-3′-O-(cyanoethyl-N, N-diisopropyl) phosphoramidites (FIG. 1. compounds 1-5) were studied to determine their suitability for solution-phase oligonucleotide synthesis in acetonitrile. Each compound (ca. 0.5 g) was placed in a flask with a magnetic stirrer immersed in an oil bath held at 30° C. To the flask was added acetonitrile (0.200 mL) and the contents stirred for 2 min. After this, further aliquots of acetonitrile (0.050 mL) were added, each time followed by stirring for 2 min. The volume of acetonitrile required to establish a clear solution was recorded. The solubility so determined is recorded in Table 1.

Compound | solubility in acetonitrile [mM] | Solubility [mM] | increase in solubility by protection of N3 (relative to unprotected 2a)
COc1ccc(C(OC[C@H]2O[C@@H](n3ccc(=O)[nH]c3=O)[C@H](OC)[C@@H]2OP(OCCC#N)N(C(C)C)C(C)C)(c2ccccc2)c2ccc(OC)cc2)cc1 (some centres unmarked) [Compound 1a] | 50 (≈ 38 mg/mL) | 70 (≈ 53.3 mg/mL) | –
COc1ccc(C(OC[C@H]2O[C@@H](n3ccc(=O)n(C(=O)c4ccccc4)c3=O)[C@H](OC)[C@@H]2OP(OCCC#N)N(C(C)C)C(C)C)(c2ccccc2)c2ccc(OC)cc2)cc1 (some centres unmarked) [Compound 1b] | – | 1920 (≈ 1660 mg/mL) | –
COc1ccc(C(OCC2OC(n3ccc(=O)n(C(=O)c4ccc(C(C)(C)C)cc4)c3=O)C(OC)C2OP(OCCC#N)N(C(C)C)C(C)C)(c2ccccc2)c2ccc(OC)cc2)cc1 (centres unmarked) [Compound 1c] | – | 1740 (≈ 1600 mg/mL) | –
COc1ccc(C(=O)n2c(=O)ccn(C3OC(COC(c4ccccc4)(c4ccc(OC)cc4)c4ccc(OC)cc4)C(OP(OCCC#N)N(C(C)C)C(C)C)C3OC)c2=O)cc1 (centres unmarked) [Compound 1d] | – | 2420 (≈ 2170 mg/mL) | –
COc1ccc(C(OCC2OC(n3cc(C)c(=O)[nH]c3=O)CC2OP(OCCC#N)N(C(C)C)C(C)C)(c2ccccc2)c2ccc(OC)cc2)cc1 (centres unmarked) [Compound 2a] | – | 1160 (≈ 864 mg/mL) | –
COc1ccc(C(OC[C@H]2O[C@@H](n3cc(C)c(=O)n(C(=O)c4ccccc4)c3=O)C[C@@H]2OP(OCCC#N)N(C(C)C)C(C)C)(c2ccccc2)c2ccc(OC)cc2)cc1 (some centres unmarked) [Compound 2b] | – | 1530 (≈ 1300 mg/mL) | more than 30%
COc1ccc(C(OC[C@H]2O[C@@H](n3ccc(NC(C)=O)nc3=O)[C@H](OC)[C@@H]2OP(OCCC#N)N(C(C)C)C(C)C)(c2ccccc2)c2ccc(OC)cc2)cc1 (some centres unmarked) [Compound 3] | – | 1300 (≈ 1040 mg/mL) | –
COc1ccc(C(OCC2OC(n3cnc4c(NC(=O)c5ccccc5)ncnc43)C(OC)C2OP(OCCC#N)N(C(C)C)C(C)C)(c2ccccc2)c2ccc(OC)cc2)cc1 (centres unmarked) [Compound 4] | – | 1210 (≈ 1070 mg/mL) | –
COc1ccc(C(OCC2OC(n3cnc4c(=O)[nH]c(NC(=O)C(C)C)nc43)C(OC)C2OP(OCCC#N)N(C(C)C)C(C)C)(c2ccccc2)c2ccc(OC)cc2)cc1 (centres unmarked) [Compound 5] | – | 1280 (≈ 1110 mg/mL) | –
